Results taken from ChEMBL document CHEMBL3621154 (Medchemcomm, 2014).

Experiments:
[1] = molecular target: T1, Amine oxidase [flavin-containing] A (Homo sapiens, UniProt P21397)
T1 sequence (P21397 whole entry): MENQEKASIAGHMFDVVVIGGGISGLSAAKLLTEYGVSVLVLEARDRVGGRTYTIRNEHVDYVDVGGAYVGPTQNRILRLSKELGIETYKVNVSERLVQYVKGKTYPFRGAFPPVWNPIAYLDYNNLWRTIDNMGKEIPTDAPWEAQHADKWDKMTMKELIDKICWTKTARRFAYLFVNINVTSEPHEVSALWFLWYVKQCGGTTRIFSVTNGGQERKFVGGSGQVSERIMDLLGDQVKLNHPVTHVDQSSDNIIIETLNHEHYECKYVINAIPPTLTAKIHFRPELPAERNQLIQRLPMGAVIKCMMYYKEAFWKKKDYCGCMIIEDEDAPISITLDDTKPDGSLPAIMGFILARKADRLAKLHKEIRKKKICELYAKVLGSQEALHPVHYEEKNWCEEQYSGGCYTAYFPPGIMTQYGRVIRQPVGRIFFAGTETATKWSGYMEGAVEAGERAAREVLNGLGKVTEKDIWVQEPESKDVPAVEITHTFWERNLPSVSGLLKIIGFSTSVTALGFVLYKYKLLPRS
Description: Inhibition of MAOA (unknown origin) by luminiscent assay

[2] = molecular target: T2, Amine oxidase [flavin-containing] B (Homo sapiens, UniProt P27338)
T2 sequence (P27338 whole entry): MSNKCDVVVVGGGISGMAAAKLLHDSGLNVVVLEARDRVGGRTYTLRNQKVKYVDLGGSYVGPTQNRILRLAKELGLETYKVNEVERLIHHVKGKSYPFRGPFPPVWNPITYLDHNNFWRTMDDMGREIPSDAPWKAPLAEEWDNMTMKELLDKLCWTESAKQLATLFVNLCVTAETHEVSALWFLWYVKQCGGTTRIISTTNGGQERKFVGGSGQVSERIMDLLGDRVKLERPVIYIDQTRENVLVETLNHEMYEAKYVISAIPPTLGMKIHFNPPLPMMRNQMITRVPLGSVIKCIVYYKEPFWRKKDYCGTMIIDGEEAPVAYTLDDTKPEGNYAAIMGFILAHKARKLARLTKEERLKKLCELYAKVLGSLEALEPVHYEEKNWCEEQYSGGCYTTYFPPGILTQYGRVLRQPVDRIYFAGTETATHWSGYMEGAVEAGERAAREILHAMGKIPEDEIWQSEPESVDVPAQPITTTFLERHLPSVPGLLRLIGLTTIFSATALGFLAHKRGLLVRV
Description: Inhibition of MAOB (unknown origin) by luminiscent assay

| Compound | IC50 [1] [µM] | IC50 [2] [µM] |
| --- | --- | --- |
| COc1ccccc1CNc1n[nH]c(NCc2ccccc2OC)n1 | > 100 | > 100 |
| Nc1nnc(NCc2c(Cl)cccc2Oc2ccccc2)[nH]1 | > 100 | > 100 |
